{"source": "patent US11857644B2", "about": "“Multi-signal fluorescent probe for early diagnosis of tumors, and preparation and use thereof” (Hunan Cancer Hospital, priority 2022, dated 2024)", "key": {"[1]": {"test": "Fluorescence response selectivity against other species", "details": "OH, t-BuO, 1O2, NO, GSH, Cys, Hcy, SO2, NAC, H2S, halides, amino acids, NaHS, NaHSO3, EtSH, PhSH, n-Butylamine, aniline", "protocol": "Regarding a method for detecting ONOO^− and Na2S2 in cells, unless otherwise specified, a probe molecule is dissolved at room temperature for analytical detection, where a volume ratio of an organic phase to an aqueous phase is 5:5. The organic phase is acetonitrile (CH3CN), and the aqueous phase is formed by PBS (pH=7.4) and an aqueous solution of the analyte.\nThe multi-signal fluorescent probe for reactive oxygen was dissolved in a solution, in which a volume ratio of […] to the aqueous phase was 5:5. The multi-signal fluorescent probe emitted 492 nm green light under 380 nm excitation wavelength after reacted with ONOO^−, and emitted 548 nm yellow light under 410 nm excitation wavelength after reacted with Na2S2. Accordingly, a specific analyte can be detected by the specific excitation and fluorescence emission signal. The ONOO^− and Na2S2 can be distinguished by using different excitation wavelengths and fluorescence emission signals. […] The LOD for ONOO^− is 42.12 nM, and the LOD for Na2S2 is 38.45 nM. In summary, the multi-signal fluorescent probe can realize the high-sensitivity discrimination and detection of ONOO^− and Na2S2."}, "[2]": {"test": "Fluorescence detection of Na2S2 by the probe (limit of detection)", "details": "organic phase:aqueous phase (PBS) 5:5, room temperature", "protocol": "(§1) The multi-signal fluorescent probe was dissolved with dimethyl sulfoxide (DMSO) to obtain a 1 mM probe solution. A 1 mM ONOO^− aqueous solution and a 1 mM Na2S2 aqueous solution were prepared.\n(§2) 20 μL of the 1 mM probe solution, 980 μL of analytically pure CH3CN, the required amount of the 1 mM ONOO^− or Na2S2 aqueous solution and the required amount of phosphate buffered saline (PBS) were added into a 2 mL sample tube. A volume ratio of an organic phase to an aqueous phase was kept at 5:5 for all tests (a total volume of each test sample was 2 mL).\nL of the 1 mM probe solution, 980 μL of analytically pure CH3CN, 20 μL of the 1 mM ONOO^− aqueous solution and 980 μL of PBS were added into a 2 mL sample tube. […] Then, the fluorescence emission intensity of the reaction mixture could be measured under the 350 nm excitation wavelength. […] Fluorescence spectra of the multi-signal fluorescent probe in the detection of peroxynitrite and sodium disulfide were shown in FIG. 2. […]\nThe multi-signal fluorescent probe for reactive oxygen was dissolved in a solution, in which a volume ratio of DMSO to the aqueous phase was 5:5. […] Accordingly, a specific analyte can be detected by the specific excitation and fluorescence emission signal. The ONOO^− and Na2S2 can be distinguished by using different excitation wavelengths and fluorescence emission signals. […]"}, "[3]": {"test": "Fluorescence detection of ONOO^− by the probe (limit of detection)", "details": "organic phase:aqueous phase (PBS) 5:5, room temperature, 15 min", "protocol": "as §1, §2\nFor example, when it was required to explore the fluorescence intensity of the multi-signal fluorescent probe after reacted with […] ONOO^−, the experiment was formulated as follows.\nL of the 1 mM probe solution, 980 μL of analytically pure CH3CN, 20 μL of the 1 mM ONOO^− aqueous solution and 980 μL of PBS were added into a 2 mL sample tube. The reaction mixture was mixed evenly under shaking at room temperature for 15 min. Then, the fluorescence emission intensity of the reaction mixture could be measured under the 350 nm excitation wavelength. Other steps were performed as above. The limit of detection (LOD) for ONOO^− was 42.12 nM, and the LOD for Na2S2 was 38.45 nM. Fluorescence spectra of the multi-signal fluorescent probe in the detection of peroxynitrite and sodium disulfide were shown in FIG. 2. […]"}}}
{"smiles": "CCN1c2ccccc2Sc2cc3c(Cl)cc(=O)oc3cc21", "note": "[multi-signal fluorescent probe, 4-chloro-11-ethylpyrano[2,3-b]phenothiazin-2(11H)-one]", "values": [{"measurement": "fluorescence response to interfering species", "setting": "[1]", "result": "no significant response"}, {"measurement": "LOD for Na2S2", "setting": "[2]", "result": 38.45, "unit": "nM"}, {"measurement": "limit of detection (LOD) for ONOO^−", "setting": "[3]", "result": 42.12, "unit": "nM"}]}
